From the supplement of paper PMC10307832

Columns and labels:
Assay in all cases: relative viability (nuclei count vs DMSO), 5 days (fraction); higher = more cells survive
[1] = compound: CC1(COc2ccc3c(c2)ncn3-c2ccc3cccc(N4CCC(N)CC4)c3n2)COC1 [Crenolanib] + Cc1cc(Nc2cc(N3CCN(C)CC3)nc(Sc3ccc(NC(=O)C4CC4)cc3)n2)n[nH]1 [Tozasertib] (partner 0.1 µM)
In short: (§1)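 Relative viability divides the nuclei count in treated wells by that in vehicle wells. Lung cancer cell lines were seeded in 1536-well plates, dosed by pin tool the next day, and fixed and stained after 5 days in one step with final 0.05% Triton X-100, 1% formaldehyde and 1 ug/ml Hoechst. Dosing was a single drug or a fixed anchor-drug dose plus five library-drug doses (not always all listed) in √10 steps, and values are medians of duplicate plates imaged at 4×.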

[2] = compound: O=C1NC(=O)[C@@H](c2cn3c4c(cccc24)CCC3)[C@@H]1c1c[nH]c2ccccc12 [Tivantinib] + CS(=O)(=O)CCNCc1ccc(-c2ccc3ncnc(Nc4ccc(OCc5cccc(F)c5)c(Cl)c4)c3c2)o1 [Lapatinib] (partner 2 µM)
In short: as §1

[3] = compound: O=C1NC(=O)[C@@H](c2cn3c4c(cccc24)CCC3)[C@@H]1c1c[nH]c2ccccc12 [Tivantinib] + CC(C)C[C@H](NC(=O)[C@H](Cc1ccccc1)NC(=O)c1cnccn1)B(O)O [Bortezomib] (partner 0.002 µM)
In short: as §1

[4] = compound: CC1(COc2ccc3c(c2)ncn3-c2ccc3cccc(N4CCC(N)CC4)c3n2)COC1 [Crenolanib] + N=C(N)NC(=N)NCCc1ccccc1 [Phenformin] (partner 250 µM)
In short: as §1

Cell Line	relative viability ([1]; first compound 0.01 µM)	relative viability ([1]; first compound 0.03162 µM)	relative viability ([1]; first compound 0.1 µM)	relative viability ([1]; first compound 0.3162 µM)	relative viability ([1]; first compound 1 µM)	relative viability ([2]; first compound 0.01 µM)	relative viability ([2]; first compound 0.03162 µM)	relative viability ([2]; first compound 0.1 µM)	relative viability ([2]; first compound 0.3162 µM)	relative viability ([3]; first compound 0.01 µM)	relative viability ([3]; first compound 0.03162 µM)	relative viability ([3]; first compound 0.1 µM)	relative viability ([3]; first compound 0.3162 µM)	relative viability ([4]; first compound 0.01 µM)	relative viability ([4]; first compound 0.03162 µM)	relative viability ([4]; first compound 0.1 µM)	relative viability ([4]; first compound 0.3162 µM)	relative viability ([4]; first compound 1 µM)
HCC-366	0.167	0.148	0.154	0.144	0.108	0.89	1.03	0.99	1.03	0.996	1.16	1.03	1.03	0.612	0.617	0.591	0.557	0.587
HCC-827	0.422	0.417	0.421	0.389	0.431	0.213	0.211	0.176	0.165	1.02	1.12	1.03	1.11	0.446	0.401	0.427	0.445	0.403
HOP-62	0.357	0.332	0.43	0.342	0.341	1.15	–	0.956	1.16	0.948	–	0.591	1.05	0.616	0.711	0.722	0.815	0.7
LC-2-ad	0.495	0.435	0.447	0.34	0.385	1.03	0.929	0.928	1.06	1.18	0.853	0.976	1.08	0.648	0.562	0.573	0.536	0.446
LCLC-97TM1	0.268	0.194	0.247	0.202	0.258	1.04	0.852	1.04	0.889	0.742	0.734	0.517	0.764	0.476	0.477	0.457	0.455	0.455
LOU-NH91	0.767	0.655	0.653	0.431	0.616	0.83	0.702	0.78	0.72	0.479	0.496	0.522	0.473	0.862	0.657	0.711	0.667	0.692
LU99A	0.288	0.261	0.277	0.249	0.263	0.987	1.14	0.889	0.905	1.19	0.99	1.18	1.09	0.95	0.748	0.818	0.902	0.822
LXF-289	0.183	0.222	0.201	0.181	0.176	0.925	0.861	0.858	0.968	1.04	1	0.922	1.04	0.514	0.538	0.523	0.524	0.483
NCI-H23	0.358	0.394	0.385	0.313	0.27	1.05	1.22	1.03	1.18	1.13	1.11	0.996	0.965	0.887	0.855	0.753	0.841	0.669
NCI-H322M	0.51	0.503	0.461	0.424	0.465	0.568	0.488	0.609	0.588	1.17	1.15	1.22	1.06	0.794	0.802	0.755	0.835	0.803
NCI-H460	0.621	0.44	0.421	0.056	0.397	0.905	0.922	0.889	0.99	1.06	1.04	0.975	1.36	0.549	0.514	0.518	0.506	0.473
NCI-H520	0.48	0.475	0.514	0.477	0.437	0.893	0.822	0.638	0.795	0.687	0.235	0.505	0.595	0.605	0.574	0.75	0.584	0.616
NCI-H596	0.944	1.09	1.02	1.19	0.972	1.04	1.05	1.01	0.964	1.19	1.09	1.78	0.936	0.691	0.806	0.72	0.733	0.737
NCI-H647	0.294	0.384	0.285	0.354	0.297	1.09	0.86	0.86	1.07	0.977	0.848	0.775	1.14	0.546	0.612	0.551	0.463	0.481
NCI-H650	0.826	0.79	0.707	0.327	0.614	0.907	–	1.02	0.964	0.723	–	0.772	0.874	0.468	0.405	0.48	0.445	0.445
NCI-H661	0.342	0.36	0.35	0.359	0.412	0.579	0.46	0.474	–	0.897	0.782	0.9	–	0.284	0.275	0.289	0.283	0.289
NCI-H727	0.635	0.579	0.721	0.65	0.501	0.824	0.689	0.802	–	0.751	0.772	0.867	–	0.636	0.544	0.497	0.565	0.599
NCI-H838	0.321	0.287	0.25	0.266	0.251	1.04	0.96	0.891	0.894	0.712	0.61	0.683	0.786	0.562	0.586	0.632	0.539	0.527

Cell Line	relative viability ([1]; first compound 0.01 µM)	relative viability ([1]; first compound 0.03162 µM)	relative viability ([1]; first compound 0.1 µM)	relative viability ([1]; first compound 0.3162 µM)	relative viability ([1]; first compound 1 µM)	relative viability ([2]; first compound 0.01 µM)	relative viability ([2]; first compound 0.03162 µM)	relative viability ([2]; first compound 0.1 µM)	relative viability ([2]; first compound 0.3162 µM)	relative viability ([3]; first compound 0.01 µM)	relative viability ([3]; first compound 0.03162 µM)	relative viability ([3]; first compound 0.1 µM)	relative viability ([3]; first compound 0.3162 µM)	relative viability ([4]; first compound 0.01 µM)	relative viability ([4]; first compound 0.03162 µM)	relative viability ([4]; first compound 0.1 µM)	relative viability ([4]; first compound 0.3162 µM)	relative viability ([4]; first compound 1 µM)
NCI-H1355	0.586	0.596	0.508	0.354	0.534	1.04	0.928	0.899	1.09	1.31	1.18	1.17	1.21	0.506	0.463	0.445	0.406	0.381
NCI-H1437	0.458	0.443	0.415	0.437	0.39	0.797	0.635	0.691	0.795	0.503	0.344	0.425	0.434	0.33	0.316	0.301	0.31	0.29
NCI-H1650	0.334	0.508	0.361	0.4	0.357	0.879	0.547	0.702	0.861	0.215	0.213	0.225	0.176	0.527	0.448	0.431	0.383	0.353
NCI-H1651	0.649	0.716	0.592	0.852	0.61	0.866	0.691	0.799	0.929	0.957	1.03	0.918	0.942	0.331	0.36	0.35	0.336	0.308
NCI-H1666	0.695	0.613	0.633	0.591	0.555	0.743	0.609	0.574	0.574	0.856	0.828	0.744	0.803	0.56	0.57	0.565	0.557	0.541
NCI-H1734	0.275	0.251	0.249	0.306	0.275	1.01	0.938	1.05	1.01	0.932	1.01	0.843	1	0.38	0.405	0.387	0.421	0.39
NCI-H1755	0.666	0.594	0.527	0.501	0.549	1.07	1.02	0.983	1.15	0.974	0.94	0.934	1.01	0.666	0.642	0.61	0.613	0.574
NCI-H1915	0.453	0.415	0.436	0.424	0.391	0.95	0.985	1	0.996	0.982	0.961	0.946	0.975	0.359	0.37	0.365	0.386	0.398
NCI-H1975	0.754	0.759	0.698	0.881	0.632	0.943	0.863	0.795	1.1	0.411	0.366	0.442	0.405	0.419	0.402	0.389	0.429	0.409
NCI-H1993	0.639	0.588	0.572	0.579	0.543	0.94	0.74	0.706	0.852	1.16	1.05	1.14	0.79	0.486	0.513	0.493	0.533	0.499
NCI-H2009	0.748	0.713	0.724	0.722	0.52	0.917	0.595	0.914	0.958	1.01	0.646	1.01	1.1	0.497	0.488	0.46	0.4	0.408
NCI-H2023	0.471	0.368	0.333	0.371	0.25	0.884	0.735	0.703	0.577	1.06	0.654	0.915	0.826	0.407	0.415	0.409	0.441	0.376
NCI-H2085	0.895	0.841	0.726	0.754	0.816	0.824	0.77	0.765	0.82	0.994	0.972	1.02	1.06	0.742	0.745	0.63	0.7	0.631
NCI-H2087	0.219	0.277	0.239	0.262	0.254	1.1	1.16	0.862	1.13	0.759	0.639	0.664	0.893	0.466	0.488	0.434	0.524	0.471
NCI-H2126	0.87	0.909	0.807	0.699	0.745	0.799	0.737	0.77	0.799	1.09	1.11	1.09	1.06	0.533	0.536	0.51	0.51	0.455
NCI-H2228	0.291	0.279	0.236	0.223	0.256	1.12	1.08	1.07	0.676	0.886	0.908	1.13	0.932	0.313	0.487	0.324	0.388	0.317
NCI-H2347	0.646	–	–	0.454	0.48	0.891	0.923	0.956	1	1.07	1.01	1.13	1.01	0.381	–	–	0.546	0.469
NCI-H2405	0.859	0.737	–	0.502	0.691	1.11	1.13	1.06	1.08	0.582	0.982	0.848	0.976	0.359	0.394	–	0.284	0.362
